Reference: US20180185302A1, “METHODS FOR DOWNREGULATING APOBEC3B” (Regents of the University of Minnesota, priority 2015, published 2018)
Entries after “also recorded” stand apart in the source; their conditions may differ. Residues, ends and D or L forms follow the SMILES beside them. *: point of attachment. Cbz = O=C(OCc1ccccc1)*

Key:
[1] = tested on: APOBEC3B; experiment: inhibitor pretreatment before PMA-induced APOBEC3B upregulation in MCF10A cells (RT-qPCR); type: cell-based, human; conditions: for suppression of PMA-induced APOBEC3B mRNA induction: 30-minute pretreatment with inhibitor, then PMA 25 ng/mL six hours
Procedure: PMA is a well-known agonist of PKC, but it also affects other cellular processes. To determine whether APOBEC3B induction by PMA occurs through PKC signal transduction or an alternative mechanism, we leveraged a panel of existing PKC inhibitors that each vary with respect to class selectivity. MCF10A cells were pre-treated for 30 minutes with varying concentrations of the pan-PKC inhibitor Gö6983 (Gschwendt et al., FEBS Lett. 392:77-80, 1996) and then treated for six hours with PMA (25 ng/mL). […] As additional controls, MCF10A cells were pretreated in parallel with the phosphoinositol 3 kinase (PI3K) inhibitor, LY294002, and the mitogen-activated protein kinase kinase (MEK) inhibitor, U0126, prior to PMA induction (FIGS. 2B and 2C).
(§1) For induction experiments, 2.5×10^5 cells were plated in a 6-well plate 1 day prior to drug treatment. PMA was then added to the media and incubated at 37° C. with 5% CO2 for six hours unless otherwise indicated. Cells were harvested, RNA was extracted, and RT-qPCR was performed as previously reported (Refsland et al. 2010, Nucleic Acids Res 38:4274-4284). For experiments utilizing inhibitors, cells were pretreated with inhibitors 30 minutes prior to PMA induction (25 ng/mL). PMA (Thermo Fisher Scientific, Inc., Waltham, Mass.), cyclohexamide (Acros Organics, Thermo Fisher Scientific, Inc., Waltham, Mass.), Gö6983 (Cayman Chemical co., Ann Arbor, Mich.), LY294002 (EMD Chemicals, Merck KGaA, Darmstadt, Germany), U0126 (EMD Chemicals, Merck KGaA, Darmstadt, Germany), AEB071 (Medchemexpress, Monmouth Junction, N.J.), Gö6976 (Enzo Life Sciences, Inc., Farmingdale, N.Y.), BAY 11-7082 (R&D Systems, INc., Minneapolis, Minn.), and MG132 (Thermo Fisher Scientific, Inc., Waltham, Mass.) were stored as recommended. NIKi/Compound 31 was synthesized as described (Li et al., 2013, Bioorganic & Medicinal Chemistry Letters 23:1238-1244).

[2] = tested on: IKKβ (canonical) over IKKα (non-canonical); conditions: reported in vitro IC50 values (Podolin et al., 2005); cited from earlier work
[3] = tested on: TNFα; experiment: TNFα mRNA expression in PMA-treated MCF10A cells (RT-qPCR); type: cell-based, human; conditions: titration of inhibitor, compared with APOBEC3B inhibition
Procedure: FIG. 3. Non-canonical NFκB signaling is responsible for APOBEC3B upregulation by PMA. […] MCF10A cells were treated with PMA following a 30-minute pretreatment with the indicated concentrations of each inhibitor. APOBEC3B mRNA expression is reported as the mean of three independent RT-qPCR reactions normalized to TBP (error bars report SD from triplicate assays). (C) Histogram depicting NFκB subunit mRNA levels in MCF10A cells treated with PMA or vehicle control. Expression was determined by RNA-seq and is reported as FKPM and normalized to TBP. […] MCF10A cells were treated with PMA following treatment with varying concentrations of TPCA-1. TNFα (light) and APOBEC3B (dark) mRNA levels are reported as the mean of three independent RT-qPCR reactions normalized to TBP (error bars report SD from triplicate assays). The dotted lines denote previously reported in vitro IC50 values for IKKα and IKKβ inhibition by TPCA-1 (Podolin et al., 2005, J Pharmacol Exp Ther. 312:373-381). (E) Histogram showing the kinetics of NFKBIA upregulation PMA. MCF10A cells were treated with PMA for the indicated times and mRNA values were quantified as in FIG. 3A. […]
Canonical signaling is known to require IKKβ, whereas non-canonical NFκB signaling is strictly dependent on IKKα-catalyzed phosphorylation of p100. […] As an additional control, TNFα, which is regulated by the canonical pathway, was analyzed.

[4] = tested on: MCF10A cells; experiment: morphology and viability of MCF10A cells under inhibitor; type: cell-based, human; conditions: low concentrations of Gö6983 (5 μM range), data not shown
Procedure: PMA is a well-known agonist of PKC, but it also affects other cellular processes. To determine whether APOBEC3B induction by PMA occurs through PKC signal transduction or an alternative mechanism, we leveraged a panel of existing PKC inhibitors that each vary with respect to class selectivity. MCF10A cells were pre-treated for 30 minutes with varying concentrations of the pan-PKC inhibitor Gö6983 (Gschwendt et al., FEBS Lett. 392:77-80, 1996) and then treated for six hours with PMA (25 ng/mL). […] APOBEC3B was suppressed to background levels with 5 μM Gö6983, as well as higher concentrations (FIG. 2A). […] As additional controls, MCF10A cells were pretreated in parallel with the phosphoinositol 3 kinase (PI3K) inhibitor, LY294002, and the mitogen-activated protein kinase kinase (MEK) inhibitor, U0126, prior to PMA induction (FIGS. 2B and 2C).

[5] = tested on: MCF-7 xenograft tumor; experiment: MCF-7 xenograft model for tamoxifen resistance; type: in vivo, mice
Source text: Human cancer cell lines, such as those listed above, and many others, upon engraftment into mice (e.g., subcutaneously, intraperotoneally, or otherwise), provide model systems for human tumor evolution, heterogeneity, and drug resistance. For instance, the estrogen-receptor positive breast cancer cell line MCF7L is a model for endocrine therapy and resistance.
The MCF-7 system may be adapted for evaluating APOBEC3 mutagenesis and drug resistance by creating derivative lines expressing low APOBEC3B (e.g., shRNA transduced) and high APOBEC3B (empty vector transduced) using lentivirus transduction followed by selection with 1 μg/ml puromycin for one week (Burns et al., 2013, Nature 494:366-370) and determine whether endogenous APOBEC3B contributes to the development of tamoxifen resistance. Five-million engineered cells are injected subcutaneously (xenografted) into athymic/ovariectomized nude-Foxnlnu (4-5 weeks old, The Jackson Laboratory, Bar Harbor, Me.). Each animal's drinking water is supplemented with 1 μM estradiol to provide continuous hormonal stimulation. The xenografted cells form large tumors within 150 days post-engraftment and depleting endogenous APOBEC3B causes a modest delay in tumor growth (dark square versus dark circle symbols in FIG. 8).

[6] = tested on: APOBEC3B; experiment: PMA induction of APOBEC3B mRNA in MCF10A cells (RT-qPCR); type: cell-based, human; conditions: 10 μg/mL cyclohexamide with PMA
Procedure: A panel of immortalized normal human epithelial cells lines and breast cancer cell lines was treated with PMA or equal amounts of DMSO as a negative control, and previously validated reverse transcription quantitative PCR (RT-qPCR) assays were used to measure mRNA levels of all eleven human APOBEC family members. APOBEC3B mRNA was induced specifically by PMA treatment of several lines including the immortalized normal breast epithelial cell line MCF10A (FIG. 1A and FIG. 6). Under standard cell culture conditions, MCF10A expresses low levels of APOBEC3B and APOBEC3F, even lower levels of APOBEC3G and APOBEC3H, high levels of APOBEC3C, and undetectable levels of all other APOBEC family members.
APOBEC3B was induced with as little as 1 ng/mL PMA, and its induction was dose responsive and near maximal at 25 ng/mL PMA (FIG. 1B, histogram). APOBEC3B mRNA levels correlated with a rise in steady-state protein levels as measured by immunoblotting with a rabbit anti-APOBEC3B monoclonal antibody (described in U.S. Provisional Patent Application No. 62/186,109. filed Jun. 29, 2015) and with enzymatic activity as measured by a gel-based single-stranded DNA cytosine deamination assay (FIG. 1B). […] APOBEC3B protein and activity levels lagged shortly behind mRNA levels and persisted through the duration of the time course (FIG. 1C, immunoblot and polyacrylamide gel). APOBEC3B upregulation may be a direct result of signal transduction as the kinetics of upregulation were not affected by simultaneously treating cells with the protein translation inhibitor cyclohexamide (FIG. 1D).
as §1

## CN(C)CCCn1cc(C2=C(c3c[nH]c4ccccc34)C(=O)NC2=O)c2ccccc21 [BIM-1, bisindolylmaleimide-1]
[1]
  suppression of PMA-induced APOBEC3B mRNA induction: inhibited; also recorded: nearly identical dose dependent suppression

## Cn1c2ccccc2c2c3c(c4c5ccccc5n(CCC#N)c4c21)CNC3=O [Gö6976]
[1]
  suppression of PMA-induced APOBEC3B mRNA induction: inhibited

## NC(=O)Nc1sc(-c2ccc(F)cc2)cc1C(N)=O [TPCA-1]
[2]
  selectivity for IKKβ (canonical) over IKKα (non-canonical): 22 fold
[1]
  suppression of PMA-induced APOBEC3B mRNA induction: near the IC50 for IKKα, not IKKβ; also recorded: inhibited closer to the reported IC50 of IKKα
[3]
  inhibition of TNFα expression: inhibited by much lower concentrations

## COc1ccc2c(c1)c(C1=C(c3c[nH]c4ccccc34)C(=O)NC1=O)cn2CCCN(C)C [Gö6983]
[4]
  morphological defects or viability issues: No morphological defects or viability issues
[1]
  suppression of PMA-induced APOBEC3B mRNA induction: inhibited; also recorded: dose responsive suppression
[1]; 30-minute pretreatment, PMA 25 ng/mL six hours
  concentration that suppressed APOBEC3B to background levels: 5 µM

## CC(C)C[C@@H](C=O)NC(=O)[C@H](CC(C)C)NC(=O)[C@H](CC(C)C)NC(=O)OCc1ccccc1 [MG132] (Cbz-Leu-Leu-Leu-aldehyde)
[1]
  suppression of PMA-induced APOBEC3B mRNA induction: dose responsive inhibition; also recorded: decreased in a dose dependent manner

## Cc1ccc(S(=O)(=O)/C=C/C#N)cc1 [BAY 11-7082]
[1]
  suppression of PMA-induced APOBEC3B mRNA induction: dose responsive inhibition; also recorded: strong dose-responsive drops

## CC/C(=C(\c1ccccc1)c1ccc(OCCN(C)C)cc1)c1ccccc1 [tamoxifen]
[5]; 500 μg 5 days/week subcutaneous injection, APOBEC3B high and low lines, mice
  tumor growth of MCF-7 derivative lines: arrested the growth of both derivative lines for several months
[5]; 500 μg 5 days/week subcutaneous, year-long experiment
  development of resistance, cells expressing high levels of APOBEC3B: invariably developed resistance
[5]; 500 μg 5 days/week subcutaneous, year-long experiment, n=5 animals/condition
  development of resistance, APOBEC3B low cell masses: only one of the APOBEC3B low cell masses became resistant

## C[C@@H]1C[C@@H]([C@H](O)CC2CC(=O)NC(=O)C2)C(=O)[C@@H](C)C1 [cyclohexamide]
[6]
  effect on kinetics of PMA-induced APOBEC3B upregulation: not affected

## N#CC(=C(/N)Sc1ccccc1N)/C(C#N)=C(\N)Sc1ccccc1N [U0126]
[1]
  suppression of PMA-induced APOBEC3B mRNA induction: not and no suppression
